We go through 17 compounds from ChEMBL document CHEMBL1201862, “PubChem BioAssay data set” (2004).

Active and inactive are the calls of the source.

One series concerns the target Nonstructural protein 1 (Influenza A virus, UniProt Q194T2). Type of series: functional, Influenza A virus (A/California/07/2009(H1N1)).
For series [1], the target named is Voltage-dependent T-type calcium channel subunit alpha-1H (Homo sapiens, UniProt O95180). The series is classed as functional.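 Also: channel activity triggered by adding a high calcium stimulation buffer.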
Series [2] in a line: cells.
The nature of series [3]: viability of uninfected HEp-2 cells – cell-based, HTS, cytotoxicity control for RSV inhibitor project, dose response (AID 2410). The series is classed as functional. The following applies: human respiratory syncytial virus.
The target of a further series is T1, Hexokinase HKDC1 (Homo sapiens, UniProt Q2TB90).
T1 sequence (Q2TB90 whole entry): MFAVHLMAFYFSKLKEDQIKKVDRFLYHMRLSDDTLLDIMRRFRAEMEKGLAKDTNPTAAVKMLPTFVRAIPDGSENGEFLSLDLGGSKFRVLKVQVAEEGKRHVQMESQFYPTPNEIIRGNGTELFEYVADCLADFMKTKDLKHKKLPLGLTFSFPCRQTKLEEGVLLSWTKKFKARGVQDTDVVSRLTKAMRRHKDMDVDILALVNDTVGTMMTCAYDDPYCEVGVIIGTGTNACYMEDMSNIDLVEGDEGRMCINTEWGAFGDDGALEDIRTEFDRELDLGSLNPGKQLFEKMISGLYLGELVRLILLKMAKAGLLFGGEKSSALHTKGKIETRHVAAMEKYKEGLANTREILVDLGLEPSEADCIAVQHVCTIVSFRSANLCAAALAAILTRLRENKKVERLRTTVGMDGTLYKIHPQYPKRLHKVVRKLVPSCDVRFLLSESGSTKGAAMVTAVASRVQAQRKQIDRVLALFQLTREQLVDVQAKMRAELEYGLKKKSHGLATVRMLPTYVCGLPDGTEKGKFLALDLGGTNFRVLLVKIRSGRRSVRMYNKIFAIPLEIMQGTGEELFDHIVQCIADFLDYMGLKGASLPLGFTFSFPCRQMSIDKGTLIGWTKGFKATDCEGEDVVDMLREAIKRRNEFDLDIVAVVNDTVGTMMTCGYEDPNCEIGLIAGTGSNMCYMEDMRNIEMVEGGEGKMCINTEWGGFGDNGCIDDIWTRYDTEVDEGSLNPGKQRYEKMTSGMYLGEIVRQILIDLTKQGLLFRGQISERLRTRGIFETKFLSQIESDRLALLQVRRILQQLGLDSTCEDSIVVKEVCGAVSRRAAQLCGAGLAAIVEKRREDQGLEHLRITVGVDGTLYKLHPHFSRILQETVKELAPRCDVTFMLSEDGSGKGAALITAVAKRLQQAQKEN
Nature of the series: inhibition of HKDC1 glucose phosphorylation – biochemical, W721R variant, dose response (AID 504729). The series is classed as functional.

Series [4] can be described thus: THP-1 cell cytotoxicity, dose response, cytotoxicity control for non-replicating M. tuberculosis project (AID 489025). The series is classed as functional.
Series [5] in a line: cells. The series is classed as functional.
For series [6], the target named is FAD-linked sulfhydryl oxidase ALR (Homo sapiens, UniProt P55789). Put plainly: ALR-catalysed DTT oxidation blockers – biochemical, H2O2 detection, luminescence, cherry-pick, dose response (AID 493248).
The next series concerns Streptococcus. Put plainly: GAS UMAA2166 growth inhibition – luminescence, BacTiterGlo, counter-screen for streptokinase expression inhibitor project, dose response (AID 1915).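 Also: potency for reduction of bacterial viability or growth.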 Type of series: functional, organism-based. Background: The purpose of a counterscreen is to sort out artefacts and off-target activity.
For a further series, the target named is T2, Streptokinase A (Streptococcus pyogenes serotype M1, UniProt P10520).
T2 sequence (P10520 whole entry): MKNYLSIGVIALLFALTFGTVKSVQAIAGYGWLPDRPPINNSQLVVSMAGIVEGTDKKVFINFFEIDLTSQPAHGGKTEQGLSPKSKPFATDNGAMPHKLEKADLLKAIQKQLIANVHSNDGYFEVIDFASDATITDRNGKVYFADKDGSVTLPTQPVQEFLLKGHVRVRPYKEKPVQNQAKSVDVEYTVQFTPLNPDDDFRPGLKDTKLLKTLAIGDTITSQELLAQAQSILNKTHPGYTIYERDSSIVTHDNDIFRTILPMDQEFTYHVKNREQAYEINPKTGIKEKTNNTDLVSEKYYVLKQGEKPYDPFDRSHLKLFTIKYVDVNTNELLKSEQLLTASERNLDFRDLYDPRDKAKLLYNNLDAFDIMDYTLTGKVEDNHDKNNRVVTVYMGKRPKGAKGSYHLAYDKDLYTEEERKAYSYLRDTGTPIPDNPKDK
Nature of the series: viability-normalized secreted streptokinase activity reduction – plasminogen activation absorbance, OD405, dose response (AID 1914).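 Also: secreted streptokinase activity via plasminogen activation per viability signal from cell pellet.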 Type of series: functional, Streptococcus pyogenes M1 GAS.

In series [7] the test system is Streptococcus sp. 'group A'. Put plainly: Streptococcus pyogenes SK(-)GAS viability under kanamycin – luminescence, BacTiterGlo, confirmation, counter-screen for streptokinase expression inhibitor project, dose response (AID 1900). The series is classed as functional, organism-based.
The target in series [8] is Glyceraldehyde-3-phosphate dehydrogenase (Homo sapiens, UniProt P04406).
For series [9], the target named is T3, Alkaline phosphatase, tissue-nonspecific isozyme (Homo sapiens, UniProt P05186).
T3 sequence (P05186 whole entry): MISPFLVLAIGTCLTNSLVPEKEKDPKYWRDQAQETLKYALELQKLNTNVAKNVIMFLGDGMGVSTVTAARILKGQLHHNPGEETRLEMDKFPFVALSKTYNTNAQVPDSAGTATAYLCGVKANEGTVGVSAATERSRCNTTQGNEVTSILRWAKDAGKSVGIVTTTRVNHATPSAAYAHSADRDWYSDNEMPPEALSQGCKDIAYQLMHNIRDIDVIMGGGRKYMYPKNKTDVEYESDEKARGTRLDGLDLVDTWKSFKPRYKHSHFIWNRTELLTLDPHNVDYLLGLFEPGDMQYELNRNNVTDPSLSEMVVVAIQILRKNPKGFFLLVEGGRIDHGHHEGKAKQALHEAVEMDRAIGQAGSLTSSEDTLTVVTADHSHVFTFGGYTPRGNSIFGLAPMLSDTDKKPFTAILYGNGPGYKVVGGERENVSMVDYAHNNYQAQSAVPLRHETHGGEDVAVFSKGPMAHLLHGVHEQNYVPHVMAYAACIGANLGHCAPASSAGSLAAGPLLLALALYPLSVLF
Nature of the series: potency against alkaline phosphatase TNAP – biochemical, luminescent, dose response, SAR follow-up (AID 1056).

The target in a further series is T4, Coagulation factor XII (Homo sapiens, UniProt P00748).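 Also: activated factor XIIa alpha cleaving a fluorogenic AMC peptide substrate; inhibitor potency from loss of enzyme activity.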
T4 sequence (P00748 whole entry): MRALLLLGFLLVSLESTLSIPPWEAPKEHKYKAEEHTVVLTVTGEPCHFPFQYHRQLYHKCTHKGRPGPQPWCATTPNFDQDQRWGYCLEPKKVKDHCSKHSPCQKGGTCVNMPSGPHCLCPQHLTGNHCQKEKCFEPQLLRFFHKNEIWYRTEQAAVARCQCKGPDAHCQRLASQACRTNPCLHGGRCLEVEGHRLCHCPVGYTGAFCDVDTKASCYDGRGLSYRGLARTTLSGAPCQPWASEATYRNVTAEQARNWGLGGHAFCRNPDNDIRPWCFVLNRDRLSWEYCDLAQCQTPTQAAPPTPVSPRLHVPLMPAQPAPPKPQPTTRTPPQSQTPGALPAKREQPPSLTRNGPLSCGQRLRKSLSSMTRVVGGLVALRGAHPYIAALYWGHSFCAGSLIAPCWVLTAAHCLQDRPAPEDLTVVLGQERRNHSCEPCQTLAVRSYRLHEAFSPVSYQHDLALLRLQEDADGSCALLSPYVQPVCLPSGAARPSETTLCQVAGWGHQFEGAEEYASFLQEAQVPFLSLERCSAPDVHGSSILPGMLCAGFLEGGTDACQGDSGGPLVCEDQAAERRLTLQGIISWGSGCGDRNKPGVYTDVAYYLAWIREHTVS
Type of series: functional.

The next series addresses Cytochrome P450 2D6 (Homo sapiens, UniProt P10635).
Series [10] has as its target T5, Calpain-2 catalytic subunit (Sus scrofa, UniProt P43367).
T5 sequence (P43367 whole entry): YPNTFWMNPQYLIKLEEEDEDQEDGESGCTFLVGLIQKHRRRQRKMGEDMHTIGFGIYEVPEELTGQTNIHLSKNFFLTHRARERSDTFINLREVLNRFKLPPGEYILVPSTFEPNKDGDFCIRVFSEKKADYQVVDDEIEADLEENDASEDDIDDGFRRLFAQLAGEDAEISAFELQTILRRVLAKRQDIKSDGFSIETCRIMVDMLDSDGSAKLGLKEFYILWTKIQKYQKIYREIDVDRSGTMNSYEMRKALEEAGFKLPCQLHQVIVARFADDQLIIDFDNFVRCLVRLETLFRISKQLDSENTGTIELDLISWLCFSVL
Put plainly: m-calpain protease blockers, concentration series – biochemical, fluorogenic peptide substrate, dose response (AID 1420). Type of series: functional.

Series [11] addresses T6, Ubiquitin-conjugating enzyme E2 N (Homo sapiens, UniProt P61088).
T6 sequence (P61088 whole entry): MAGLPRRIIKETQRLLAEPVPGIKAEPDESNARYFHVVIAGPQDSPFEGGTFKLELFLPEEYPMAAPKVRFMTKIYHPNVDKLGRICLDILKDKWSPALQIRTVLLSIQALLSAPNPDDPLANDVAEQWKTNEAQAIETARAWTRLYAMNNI
Type of series: functional.

Another series deals with T7, Bcl-2-related protein A1 (Mus musculus, UniProt Q07440).
T7 sequence (Q07440 whole entry): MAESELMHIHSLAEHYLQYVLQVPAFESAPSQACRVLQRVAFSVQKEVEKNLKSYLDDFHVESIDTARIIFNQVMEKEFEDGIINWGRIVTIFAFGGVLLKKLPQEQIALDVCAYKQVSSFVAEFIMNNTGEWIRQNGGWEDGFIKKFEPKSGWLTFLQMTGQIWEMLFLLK
Type of series: functional.

Series [12] deals with T6, Ubiquitin-conjugating enzyme E2 N. The series is classed as functional. The source holds these as a separate data set.
A short description of series [13]: cells. Type of series: functional, cell-based.
A short description of series [14]: cells. The series is classed as functional, cell-based. The source holds these as a separate data set.
A further series has as its target Cytochrome P450 2C9 (Homo sapiens, UniProt P11712).

Chain of Glyceraldehyde-3-phosphate dehydrogenase (P04406 whole entry): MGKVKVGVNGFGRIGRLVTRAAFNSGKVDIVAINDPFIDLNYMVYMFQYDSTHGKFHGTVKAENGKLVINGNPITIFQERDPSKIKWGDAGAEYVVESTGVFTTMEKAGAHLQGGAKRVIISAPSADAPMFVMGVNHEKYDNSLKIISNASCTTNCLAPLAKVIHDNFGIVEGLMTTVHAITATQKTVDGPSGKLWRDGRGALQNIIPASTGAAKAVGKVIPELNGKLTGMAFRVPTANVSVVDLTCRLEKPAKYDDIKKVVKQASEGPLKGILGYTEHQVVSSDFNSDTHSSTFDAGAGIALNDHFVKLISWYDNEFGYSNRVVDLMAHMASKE
Chain of Nonstructural protein 1 (Q194T2 whole entry): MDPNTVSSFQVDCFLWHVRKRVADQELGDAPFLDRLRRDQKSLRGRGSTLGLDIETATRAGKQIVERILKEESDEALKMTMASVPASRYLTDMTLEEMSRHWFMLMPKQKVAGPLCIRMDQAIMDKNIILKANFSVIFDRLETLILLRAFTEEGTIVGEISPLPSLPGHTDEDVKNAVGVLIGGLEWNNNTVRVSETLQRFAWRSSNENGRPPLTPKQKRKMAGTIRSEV
Chain of Cytochrome P450 2C9 (P11712 whole entry): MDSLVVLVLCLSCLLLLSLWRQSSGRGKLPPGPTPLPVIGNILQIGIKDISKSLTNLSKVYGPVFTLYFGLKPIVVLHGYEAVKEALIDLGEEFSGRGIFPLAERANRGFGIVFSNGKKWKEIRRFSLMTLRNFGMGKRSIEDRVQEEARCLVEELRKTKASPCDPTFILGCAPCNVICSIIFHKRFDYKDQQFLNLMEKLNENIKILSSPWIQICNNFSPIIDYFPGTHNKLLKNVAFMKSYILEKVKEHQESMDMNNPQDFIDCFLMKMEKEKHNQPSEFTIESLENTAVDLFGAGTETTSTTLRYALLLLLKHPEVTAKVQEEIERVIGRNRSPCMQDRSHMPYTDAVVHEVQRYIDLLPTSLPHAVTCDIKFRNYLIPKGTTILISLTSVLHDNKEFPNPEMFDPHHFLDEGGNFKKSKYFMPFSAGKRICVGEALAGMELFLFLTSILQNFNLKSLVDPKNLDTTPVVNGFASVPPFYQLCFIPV
Chain of Voltage-dependent T-type calcium channel subunit alpha-1H (O95180 whole entry): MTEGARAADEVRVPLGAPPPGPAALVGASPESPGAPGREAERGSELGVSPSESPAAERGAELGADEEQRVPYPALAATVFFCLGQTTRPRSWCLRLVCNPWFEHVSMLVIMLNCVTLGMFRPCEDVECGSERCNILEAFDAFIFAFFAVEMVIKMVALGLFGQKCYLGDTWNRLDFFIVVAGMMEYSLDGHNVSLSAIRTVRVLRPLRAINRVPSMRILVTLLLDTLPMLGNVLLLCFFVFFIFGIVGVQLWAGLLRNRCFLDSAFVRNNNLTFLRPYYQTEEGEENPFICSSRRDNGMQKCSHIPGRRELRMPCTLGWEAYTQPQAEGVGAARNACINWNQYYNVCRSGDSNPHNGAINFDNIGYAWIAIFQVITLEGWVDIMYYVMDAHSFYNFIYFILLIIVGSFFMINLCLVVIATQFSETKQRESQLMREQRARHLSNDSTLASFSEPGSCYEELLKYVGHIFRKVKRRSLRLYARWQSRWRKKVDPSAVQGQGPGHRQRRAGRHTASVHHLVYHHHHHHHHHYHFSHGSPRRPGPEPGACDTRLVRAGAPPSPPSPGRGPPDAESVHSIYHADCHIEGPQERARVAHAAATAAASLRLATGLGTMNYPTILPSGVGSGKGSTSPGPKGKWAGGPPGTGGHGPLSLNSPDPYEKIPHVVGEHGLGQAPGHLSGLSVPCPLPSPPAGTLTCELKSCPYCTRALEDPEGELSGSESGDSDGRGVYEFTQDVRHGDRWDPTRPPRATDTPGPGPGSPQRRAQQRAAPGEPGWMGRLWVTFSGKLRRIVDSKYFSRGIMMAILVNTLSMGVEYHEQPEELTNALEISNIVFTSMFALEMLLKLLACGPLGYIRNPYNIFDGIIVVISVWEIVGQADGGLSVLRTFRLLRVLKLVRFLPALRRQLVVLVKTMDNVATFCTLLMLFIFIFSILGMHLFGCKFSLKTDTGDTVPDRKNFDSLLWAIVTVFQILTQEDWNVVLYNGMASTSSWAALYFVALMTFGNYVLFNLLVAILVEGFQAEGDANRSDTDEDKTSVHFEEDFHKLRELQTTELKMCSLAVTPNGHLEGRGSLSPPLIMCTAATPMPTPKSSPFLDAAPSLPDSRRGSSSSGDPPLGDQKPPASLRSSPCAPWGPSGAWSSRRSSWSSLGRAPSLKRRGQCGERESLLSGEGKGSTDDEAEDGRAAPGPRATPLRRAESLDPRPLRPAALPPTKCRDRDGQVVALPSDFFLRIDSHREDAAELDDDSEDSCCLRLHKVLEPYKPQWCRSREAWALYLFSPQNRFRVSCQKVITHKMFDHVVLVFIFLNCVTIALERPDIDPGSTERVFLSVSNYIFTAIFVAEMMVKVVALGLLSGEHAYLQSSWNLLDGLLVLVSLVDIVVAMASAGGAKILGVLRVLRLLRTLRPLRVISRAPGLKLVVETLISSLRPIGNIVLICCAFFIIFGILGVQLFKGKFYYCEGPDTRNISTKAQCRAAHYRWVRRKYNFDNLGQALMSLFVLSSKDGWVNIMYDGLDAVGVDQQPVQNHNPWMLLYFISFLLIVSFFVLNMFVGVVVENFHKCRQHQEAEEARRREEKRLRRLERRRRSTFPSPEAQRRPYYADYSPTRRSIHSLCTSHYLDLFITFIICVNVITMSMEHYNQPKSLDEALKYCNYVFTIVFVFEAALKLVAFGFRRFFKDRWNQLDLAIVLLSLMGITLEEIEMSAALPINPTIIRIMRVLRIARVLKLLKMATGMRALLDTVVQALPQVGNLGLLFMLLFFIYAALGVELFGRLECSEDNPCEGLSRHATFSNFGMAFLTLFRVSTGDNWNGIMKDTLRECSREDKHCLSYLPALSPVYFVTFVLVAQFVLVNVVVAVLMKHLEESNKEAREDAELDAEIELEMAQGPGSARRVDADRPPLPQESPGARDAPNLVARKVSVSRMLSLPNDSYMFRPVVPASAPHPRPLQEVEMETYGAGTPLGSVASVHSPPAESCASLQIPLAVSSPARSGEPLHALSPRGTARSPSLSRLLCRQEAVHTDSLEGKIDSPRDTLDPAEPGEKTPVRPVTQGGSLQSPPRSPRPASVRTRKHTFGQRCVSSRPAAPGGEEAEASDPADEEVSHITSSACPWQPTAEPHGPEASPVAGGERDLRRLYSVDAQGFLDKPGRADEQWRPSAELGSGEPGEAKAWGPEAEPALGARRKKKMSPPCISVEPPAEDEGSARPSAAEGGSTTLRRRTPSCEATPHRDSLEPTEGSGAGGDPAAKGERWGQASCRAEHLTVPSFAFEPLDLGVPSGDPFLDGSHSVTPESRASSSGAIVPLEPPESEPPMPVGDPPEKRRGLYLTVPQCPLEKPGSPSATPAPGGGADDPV
Chain of FAD-linked sulfhydryl oxidase ALR (P55789 whole entry): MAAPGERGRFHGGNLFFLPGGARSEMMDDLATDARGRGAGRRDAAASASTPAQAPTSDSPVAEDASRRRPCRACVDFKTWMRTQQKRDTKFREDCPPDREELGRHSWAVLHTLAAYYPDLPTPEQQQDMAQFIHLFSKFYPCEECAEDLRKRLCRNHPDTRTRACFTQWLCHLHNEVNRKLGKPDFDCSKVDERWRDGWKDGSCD
Chain of Cytochrome P450 2D6 (P10635 whole entry): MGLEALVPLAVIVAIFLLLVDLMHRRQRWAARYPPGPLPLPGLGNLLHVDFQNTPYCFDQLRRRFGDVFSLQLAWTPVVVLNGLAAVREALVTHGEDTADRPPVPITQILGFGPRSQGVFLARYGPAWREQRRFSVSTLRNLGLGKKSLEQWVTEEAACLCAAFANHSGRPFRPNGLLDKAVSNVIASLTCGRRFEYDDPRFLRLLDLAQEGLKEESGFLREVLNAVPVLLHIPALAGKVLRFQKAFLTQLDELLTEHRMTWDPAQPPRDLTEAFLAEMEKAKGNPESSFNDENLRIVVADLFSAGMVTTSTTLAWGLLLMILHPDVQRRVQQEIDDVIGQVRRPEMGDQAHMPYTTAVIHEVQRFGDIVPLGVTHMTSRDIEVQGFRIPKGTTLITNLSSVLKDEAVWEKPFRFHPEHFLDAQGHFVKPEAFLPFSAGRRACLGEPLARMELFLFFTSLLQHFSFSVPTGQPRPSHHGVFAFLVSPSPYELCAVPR

As to `COc1ccc(NC(=O)CSc2n[nH]c(-c3ccccn3)n2)cc1`, the half-maximal inhibitory concentration (IC50) (commonly the midpoint of a concentration-inhibition curve) at Nonstructural protein 1 is 4.25 µM (active).

For the compound `COc1cccc(C(=O)N(Cc2nc(-c3cccc(C)c3)no2)C(C)C)c1OC`, in series [1], the EC50 (in general, the concentration needed to bring the measured effect to its halfway point) is 12.7 µM (active). In addition, the IC50 in “cells [2]” was 4.69 µM (active). Further, in [3], the CC50 (commonly the concentration at which the toxic effect on the cells reaches its halfway point) was 30.6 µM (active).

As to `CCc1nc2c(c(=O)c3ccccc3n2C)c(=O)n1-c1ccc(F)cc1`, on Hexokinase HKDC1, the half-inhibitory concentration (IC50) was 7.9 µM (active).

Consider `COC(=O)C1=C(c2ccc(F)cc2F)C[C@@H]2CC[C@H]1N2C(=O)NCCOc1ccccc1Cl`, for which, in the series “cells [2]”, the IC50 is 13.9 µM (active). Besides, the 50% cytotoxic concentration (CC50) in series [3] is 34.5 µM (active).

As to `Cc1ccc(-c2nc3ccccn3c2Nc2ccccc2)o1`, the 50% cytotoxic concentration (CC50) in series [4] was > 40 µM (active). Besides, the half-maximal inhibitory concentration (IC50) in the series “cells [5]” is 19.7 µM (active). For the same compound, the concentration at half-maximal activity (AC50) (in general, the concentration at which the activity in the assay is half-maximal) in series [6] is 235 nM (active).

For the compound `Cc1ccc2c(C)c(C(=O)Nc3ccc(S(=O)(=O)Nc4onc(C)c4C)cc3)oc2c1`, the values for the EC50 (with Streptococcus; on Streptokinase A; in series [7]) were > 150 µM (not active), > 150 µM (not active) and 23.8 µM (active), respectively. Besides, the concentration for half-maximal inhibition (IC50) in “cells [2]” was 24.7 µM (active). In addition, in [3], the CC50 was 24.4 µM (active).

In the case of `O=S(=O)(Nc1cccnc1)c1cc(Cl)cc(Cl)c1O`, the IC50 is > 100 µM (not active) in series [8] and > 100 µM (inactive) in [9].

For the compound `COCCn1c(-c2ccccc2Cl)nc2c(c(=O)c3ccccc3n2C)c1=O`, the IC50 in “cells [2]” is 14.6 µM (active).

With `Cc1ccc(NC(=O)CSCC(N)=O)cc1C`, the IC50 on Coagulation factor XII is > 50 µM (inactive).

Turning to `O=C(CSc1nnc(CCCN2C(=O)c3cccc4cccc(c34)C2=O)n1-c1ccccc1)N1CCCCC1`, the 50% inhibitory concentration (IC50) at Hexokinase HKDC1 was 11.4 µM (active).

With `O=C(Cc1ccccc1)NC(NC(=S)Nc1cc(Cl)ccc1Cl)C(Cl)(Cl)Cl` (stereo not given), the half-maximal activity concentration (AC50) at Cytochrome P450 2D6 was 3.16 µM (inconclusive). In addition, the IC50 in [10] was > 50 µM (not active); on Coagulation factor XII it was > 50 µM (inactive).

As to `O=C(CN(Cc1cccs1)C(=O)CCC(=O)Nc1nccs1)NCc1ccccc1`, the IC50 at Coagulation factor XII was > 50 µM (inactive).

As to `c1cncc(-c2cncnc2)c1`, the half-maximal inhibitory concentration (IC50) in series [8] was > 100 µM (not active); in series [9] it was > 100 µM (inactive).

On to `CC1CC(C)(C)n2c(O)c(/N=N/C(=N)S)c3cccc1c32` (stereo not given), for which the results for the 50% inhibitory concentration (IC50) (in series [11]; on Bcl-2-related protein A1; in series [12]) were 6.33 µM (active), > 20 µM (inactive) and 4.95 µM (active), respectively. The concentration giving a half-maximal response (EC50) in the series on Streptococcus was > 150 µM (not active); at Streptokinase A, > 150 µM (not active); in series [7], 9.25 µM (active).

As to `O=C(O)c1ccc(/N=C/c2c(O)ccc3ccccc23)cc1`, the IC50 at Hexokinase HKDC1 was 38.1 µM (inactive).

For `N#C/C(=N\Nc1ccccc1)C(N)=S`, at Coagulation factor XII, the IC50 was > 50 µM (inactive).

Consider `COc1ccc(C(=O)N/N=C/c2cccc3cccnc23)cc1`, for which the concentration for a half-maximal effect (EC50) in “cells [13]” was 15.5 µM (active); in “cells [14]” it was > 350 µM (not active). In series [4], the 50% cytotoxic concentration (CC50) was 14.7 µM (active). Further, the IC50 at Nonstructural protein 1 is 5.8 µM (active); in “cells [5]”, 3.44 µM (active). Also, the half-maximal activity concentration (AC50) entry on Cytochrome P450 2C9 was “inconclusive”.
